These results are taken from patent publication US7951829B2, “Benzimidazole modulators of VR1” (Janssen Pharmaceutica NV, priority 2006, dated 2011).

This assay has as its target T1, hVR1 (Homo sapiens, UniProt Q8NER1).
T1 construct: expressed in transfected cells; host or cells: HEK293
Briefly: Human VR1 (hVR1) Functional Assay (FLIPR intracellular calcium, capsaicin challenge). As to conditions: capsaicin 0.030 μM, HEK293 cells expressing hVR1; for inhibition at 1 µM: test concentration 1 μM. It counts as cell-based.

T1 sequence (Q8NER1 whole entry): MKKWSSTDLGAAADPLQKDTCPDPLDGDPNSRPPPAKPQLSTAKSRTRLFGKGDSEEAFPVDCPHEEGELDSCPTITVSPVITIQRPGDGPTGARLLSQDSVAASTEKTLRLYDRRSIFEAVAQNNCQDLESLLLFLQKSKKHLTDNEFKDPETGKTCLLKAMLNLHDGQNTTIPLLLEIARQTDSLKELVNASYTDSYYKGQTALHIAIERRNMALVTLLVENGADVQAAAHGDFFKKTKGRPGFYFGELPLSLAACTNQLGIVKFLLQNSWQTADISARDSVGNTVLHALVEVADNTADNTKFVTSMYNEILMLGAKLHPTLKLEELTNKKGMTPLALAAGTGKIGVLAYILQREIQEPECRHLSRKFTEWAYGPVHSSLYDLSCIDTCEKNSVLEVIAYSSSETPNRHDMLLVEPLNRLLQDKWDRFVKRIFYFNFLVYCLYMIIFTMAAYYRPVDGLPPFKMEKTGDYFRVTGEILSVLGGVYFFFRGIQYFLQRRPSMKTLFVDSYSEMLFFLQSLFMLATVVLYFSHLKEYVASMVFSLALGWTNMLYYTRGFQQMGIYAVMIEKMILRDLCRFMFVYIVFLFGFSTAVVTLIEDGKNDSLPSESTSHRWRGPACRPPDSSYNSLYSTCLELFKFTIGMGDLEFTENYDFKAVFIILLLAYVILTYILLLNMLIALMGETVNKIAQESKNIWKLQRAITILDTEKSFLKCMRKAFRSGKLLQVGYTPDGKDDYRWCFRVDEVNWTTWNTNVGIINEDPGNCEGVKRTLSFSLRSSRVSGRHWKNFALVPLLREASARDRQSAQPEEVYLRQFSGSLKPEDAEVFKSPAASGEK

`CCS(=O)(=O)Nc1ccccc1-c1ccc2[nH]c(/C=C/c3ccc(C(F)(F)F)cc3)nc2c1` [Cpd 461, (E)-ethanesulfonic acid (2-{2-[2-(4-trifluoromethyl-phenyl)-vinyl]-1H-benzimidazol-5-yl}-phenyl)-amide]: the IC50 (commonly the midpoint of a concentration-inhibition curve) was 5 nM and the inhibition (commonly the change of the read-out against control, counted positive when it falls) at 1 µM came to 99%.

Take `OCc1ccccc1-c1cc2nc(/C=C/c3ccc(C(F)(F)F)cc3)[nH]c2cc1Cl` [Cpd 66, (E)-(2-{6-chloro-2-[2-(4-trifluoromethyl-phenyl)-vinyl]-1H-benzimidazol-5-yl}-phenyl)-methanol]: the IC50 came out at 48 nM and the inhibition at 1 µM stood at 98%.

`CCOc1ccc(/C=C/c2nc3cc(-c4ccccc4NS(C)(=O)=O)ccc3[nH]2)cc1` [Cpd 414, (E)-N-(2-{2-[2-(4-ethoxy-phenyl)-vinyl]-1H-benzimidazol-5-yl}-phenyl)-methanesulfonamide]: the IC50 worked out at 140 nM and the inhibition at 1 µM amounted to 98%.

Consider `CS(=O)(=O)Nc1ccccc1-c1ccc2[nH]c(/C=C/c3ccc(S(C)(=O)=O)cc3)nc2c1` [Cpd 83, (E)-N-(2-{2-[2-(4-methanesulfonyl-phenyl)-vinyl]-1H-benzimidazol-5-yl}-phenyl)-methanesulfonamide], for which the IC50 is over 500 nM.

Regarding `O=Cc1ccccc1-c1ccc2[nH]c(/C=C/c3ccc(C(F)(F)F)cc3)nc2c1` [Cpd 484, (E)-2-{2-[2-(4-trifluoromethyl-phenyl)-vinyl]-1H-benzimidazol-5-yl}-benzaldehyde], the half-maximal inhibitory concentration (IC50) was over 500 nM.

In the case of `CS(=O)(=O)Nc1ccccc1-c1ccc2[nH]c(/C=C/c3ccc(C(F)(F)F)c(F)c3)nc2c1` [Cpd 417, (E)-N-(2-{2-[2-(3-fluoro-4-trifluoromethyl-phenyl)-vinyl]-1H-benzimidazol-5-yl}-phenyl)-methanesulfonamide], the IC50 worked out at 11 nM and the inhibition at 1 µM amounted to 100%.

As for `CS(=O)(=O)Nc1ccccc1-c1ccc2[nH]c(/C=C/c3ccc(F)c(F)c3)nc2c1` [Cpd 28, (E)-N-(2-{2-[2-(3,4-difluoro-phenyl)-vinyl]-1H-benzimidazol-5-yl}-phenyl)-methanesulfonamide], the IC50 turned out to be 250 nM and the inhibition at 1 µM was found to be 96%.

As to `CS(=O)(=O)Nc1ccccc1-c1ccc2[nH]c(/C=C/c3ccc(Cl)c(Cl)c3)nc2c1` [Cpd 416, (E)-N-(2-{2-[2-(3,4-dichloro-phenyl)-vinyl]-1H-benzimidazol-5-yl}-phenyl)-methanesulfonamide], the IC50 stood at 120 nM and the inhibition at 1 µM is 96%.

For `CC(O)c1ccccc1-c1ccc2[nH]c(/C=C/c3ccc(C(C)(C)C)cc3)nc2c1` (centres unmarked) [Cpd 2, (E)-1-(2-{2-[2-(4-tert-butyl-phenyl)-vinyl]-1H-benzimidazol-5-yl}-phenyl)-ethanol], the IC50 came to 12 nM and the inhibition at 1 µM was 100%.

Consider `NS(=O)(=O)c1ccccc1-c1ccc2[nH]c(C#Cc3ccccc3)nc2c1` [Cpd 490, 2-(2-phenylethynyl-1H-benzimidazol-5-yl)-benzenesulfonamide], for which the IC50 was determined as 26 nM and the inhibition at 1 µM is 99%.

As for `NS(=O)(=O)c1ccccc1-c1ccc2[nH]c(/C=C/c3ccc(F)cc3C(F)(F)F)nc2c1` [Cpd 367, (E)-2-{2-[2-(4-fluoro-2-trifluoromethyl-phenyl)-vinyl]-1H-benzimidazol-5-yl}-benzenesulfonamide], the IC50 stood at 53 nM and the inhibition at 1 µM is 98%.

Regarding `CNS(=O)(=O)c1ccccc1-c1ccc2[nH]c(/C=C/c3ccc(NC(C)=O)cc3)nc2c1` [Cpd 452, (E)-N-(4-{2-[5-(2-methylsulfamoyl-phenyl)-1H-benzimidazol-2-yl]-vinyl}-phenyl)-acetamide], the inhibition at 1 µM is 5%.

As for `Cc1ccc(/C=C/c2nc3cc(-c4ccccc4NS(C)(=O)=O)ccc3[nH]2)cc1` [Cpd 412, (E)-N-{2-[2-(2-p-tolyl-vinyl)-1H-benzimidazol-5-yl]-phenyl}-methanesulfonamide], the IC50 amounted to 190 nM and the inhibition at 1 µM came to 86%.

As to `NS(=O)(=O)c1ccccc1-c1ccc2[nH]c(CCc3ccc(Cl)cc3)nc2c1` [Cpd 139, 2-{2-[2-(4-chloro-phenyl)-ethyl]-1H-benzimidazol-5-yl}-benzenesulfonamide], the IC50 came out at 31 nM and the inhibition at 1 µM turned out to be 98%.

On to `CS(=O)(=O)Nc1ccccc1-c1ccc2[nH]c(/C=C/c3ccc(C(F)(F)F)cc3F)nc2c1` [Cpd 418, (E)-N-(2-{2-[2-(2-fluoro-4-trifluoromethyl-phenyl)-vinyl]-1H-benzimidazol-5-yl}-phenyl)-methanesulfonamide], for which the IC50 turned out to be 18 nM and the inhibition at 1 µM amounted to 100%.

As for `CS(=O)(=O)Nc1ccccc1-c1cc2nc(/C=C/c3ccc(C(F)(F)F)cc3)[nH]c2cc1F` [Cpd 65, (E)-N-(2-{6-fluoro-2-[2-(4-trifluoromethyl-phenyl)-vinyl]-1H-benzimidazol-5-yl}-phenyl)-methanesulfonamide], the inhibition at 1 µM was determined as 0%.

Regarding `CC(C)(O)c1ccccc1-c1ccc2[nH]c(C3CC3c3ccc(OC(F)(F)F)cc3)nc2c1` (centres unmarked) [Cpd 497, 2-(2-{2-[2-(4-trifluoromethoxy-phenyl)-cyclopropyl]-1H-benzimidazol-5-yl}-phenyl)-propan-2-ol], the IC50 worked out at 39 nM and the inhibition at 1 µM was determined as 94%.

As to `CNS(=O)(=O)c1ccccc1-c1ccc2[nH]c(/C=C/c3ccc(Cl)cc3Cl)nc2c1` [Cpd 337, (E)-2-{2-[2-(2,4-dichloro-phenyl)-vinyl]-1H-benzimidazol-5-yl}-N-methyl-benzenesulfonamide], the IC50 stood at 14 nM and the inhibition at 1 µM came out at 96%.

With `CC(=O)Nc1ccccc1-c1ccc2[nH]c(CCc3ccc(C(F)(F)F)cc3)nc2c1` [Cpd 457, N-(2-{2-[2-(4-trifluoromethyl-phenyl)-ethyl]-1H-benzimidazol-5-yl}-phenyl)-acetamide], the inhibition at 1 µM was 22%.

`CCOc1cccc(/C=C/c2nc3cc(-c4ccccc4S(N)(=O)=O)ccc3[nH]2)c1` [Cpd 425, (E)-2-{2-[2-(3-ethoxy-phenyl)-vinyl]-1H-benzimidazol-5-yl}-benzenesulfonamide]: the inhibition at 1 µM was found to be 2%.

For the molecule `NS(=O)(=O)c1ccccc1-c1ccc2[nH]c(/C=C/c3cccc(Cl)c3F)nc2c1` [Cpd 431, (E)-2-{2-[2-(3-chloro-2-fluoro-phenyl)-vinyl]-1H-benzimidazol-5-yl}-benzenesulfonamide], the IC50 worked out at 35 nM and the inhibition at 1 µM is 97%.

As to `OCc1ccccc1-c1ccc2[nH]c(C3CC3c3ccc(C(F)(F)F)cc3)nc2c1` (centres unmarked) [Cpd 474, (2-{2-[2-(4-trifluoromethyl-phenyl)-cyclopropyl]-1H-benzimidazol-5-yl}-phenyl)-methanol], the half-inhibitory concentration (IC50) is over 500 nM.

For `Cn1c(/C=C/c2ccc(C(F)(F)F)cc2)nc2cc(-c3ccccc3NS(C)(=O)=O)ccc21` [Cpd 477, (E)-N-(2-{1-methyl-2-[2-(4-trifluoromethyl-phenyl)-vinyl]-1H-benzimidazol-5-yl}-phenyl)-methanesulfonamide], the inhibition at 1 µM amounted to 44%.

Consider `CS(=O)(=O)c1ccc(/C=C/c2nc3cc(-c4ccccc4S(N)(=O)=O)ccc3[nH]2)cc1` [Cpd 85, (E)-2-{2-[2-(4-methanesulfonyl-phenyl)-vinyl]-1H-benzimidazol-5-yl}-benzenesulfonamide], for which the inhibition at 1 µM turned out to be 16%.

In the case of `NS(=O)(=O)c1ccccc1-c1ccc2[nH]c(/C=C/c3cccc(OC(F)(F)F)c3)nc2c1` [Cpd 362, (E)-2-{2-[2-(3-trifluoromethoxy-phenyl)-vinyl]-1H-benzimidazol-5-yl}-benzenesulfonamide], the IC50 was 8 nM and the inhibition at 1 µM was 99%.

For `CNS(=O)(=O)c1ccccc1-c1ccc2[nH]c(/C=C/c3ccccc3Cl)nc2c1` [Cpd 346, (E)-2-{2-[2-(2-chloro-phenyl)-vinyl]-1H-benzimidazol-5-yl}-N-methyl-benzenesulfonamide], the half-maximal inhibitory concentration (IC50) turned out to be 264 nM and the inhibition at 1 µM is 87%.

For `CS(=O)(=O)Nc1ccccc1-c1ccc2[nH]c(/C=C/c3ccc(F)c(Cl)c3)nc2c1` [Cpd 408, (E)-N-(2-{2-[2-(3-chloro-4-fluoro-phenyl)-vinyl]-1H-benzimidazol-5-yl}-phenyl)-methanesulfonamide], the inhibition at 1 µM amounted to 64%.

As for `NS(=O)(=O)c1ccccc1-c1ccc2[nH]c(CCc3ccc(F)c(C(F)(F)F)c3)nc2c1` [Cpd 383, 2-{2-[2-(4-fluoro-3-trifluoromethyl-phenyl)-ethyl]-1H-benzimidazol-5-yl}-benzenesulfonamide], the concentration for half-maximal inhibition (IC50) turned out to be 11 nM and the inhibition at 1 µM worked out at 96%.

On to `NS(=O)(=O)c1ccccc1-c1ccc2[nH]c(CCc3ccc(F)c(F)c3)nc2c1` [Cpd 393, 2-{2-[2-(3,4-difluoro-phenyl)-ethyl]-1H-benzimidazol-5-yl}-benzenesulfonamide], for which the concentration for half-maximal inhibition (IC50) came to 10 nM and the inhibition at 1 µM came out at 98%.

Consider `CNCc1ccccc1-c1ccc2[nH]c(/C=C/c3ccc(C(F)(F)F)cc3)nc2c1` [Cpd 485, (E)-methyl-(2-{2-[2-(4-trifluoromethyl-phenyl)-vinyl]-1H-benzimidazol-5-yl}-benzyl)-amine], for which the IC50 is over 500 nM.

Turning to `CNS(=O)(=O)c1ccccc1-c1ccc2[nH]c(/C=C/c3cc(F)cc(C(F)(F)F)c3)nc2c1` [Cpd 322, (E)-2-{2-[2-(3-fluoro-5-trifluoromethyl-phenyl)-vinyl]-1H-benzimidazol-5-yl}-N-methyl-benzenesulfonamide], the IC50 stood at 14 nM and the inhibition at 1 µM stood at 101%.

Consider `CS(=O)(=O)c1cc(Cl)ccc1CCc1nc2cc(-c3ccccc3S(N)(=O)=O)ccc2[nH]1` [Cpd 389, 2-{2-[2-(4-chloro-2-methanesulfonyl-phenyl)-ethyl]-1H-benzimidazol-5-yl}-benzenesulfonamide], for which the inhibition at 1 µM is 23%.

For the molecule `CC(=O)Nc1ccc(-c2ccc3[nH]c(/C=C/c4ccc(C(C)(C)C)cc4)nc3c2)cc1` [Cpd 8, (E)-N-(4-{2-[2-(4-tert-butyl-phenyl)-vinyl]-1H-benzimidazol-5-yl}-phenyl)-acetamide], the inhibition at 1 µM amounted to 10%.
